{"source": "patent US20240216421A1", "about": "“COMBINATION PRODUCT AND METHODS FOR PREVENTING THE EMERGENCE OF ANTIBIOTIC-RESISTANT BACTERIA UNDER ANTIBIOTIC TREATMENT” (DIOTHERIS, priority 2021, published 2024)", "key": {"[1]": {"test_system": "S. epidermidis Rif^R mutant", "test": "Rifampicin MIC, agar dilution method", "assay_type": "cell-based", "details": "Staphylococcus epidermidis, rifampicin resistance breakpoint MIC >16 μg/mL"}, "[2]": {"test_system": "C. aurimucosum Rif^R mutant", "test": "Rifampicin MIC, agar dilution method", "assay_type": "cell-based", "details": "Corynebacterium aurimucosum, rifampicin resistance breakpoint MIC >16 μg/mL", "procedure": "Spontaneous rifampicin-resistant colonies were obtained in one step by plating ≈10^9 CFU of C. aurimucosum CIP 102616 on blood agar plates supplemented with 20 μg/mL of rifampicin. Five clones were re-isolated on rifampicin-containing plates, and one of them was selected (C. aurimucosum CIP 102616 Rif^R mutant)."}, "[3]": {"test_system": "S. aureus rifampicin-resistant mutants", "test": "Rifampicin MIC of bacteria forming colonies on negative-control plates, agar dilution method", "assay_type": "cell-based, Staphylococcus aureus", "procedure": "A 5 McFarland suspension of CIP 102616 Rif^R was prepared from a 48 h-culture on Columbia 5% sheep blood agar at 35+/−2° C., and 300 μl of this suspension (≈10^7 CFU) was inoculated by swabbing on a 90 mm diameter blood agar plate containing 20 μg/mL of rifampicin; 300 μl of saline was inoculated as “negative control” (rifampicin-containing agar plate not inoculated with CIP 102616 Rif^R). Materials and methods were otherwise as described in Example 2, except that one 40 μl drop (≈10^7 CFU) was spread out on each filter. Rifampicin MIC values of bacteria forming rifampicin-resistant colonies on “negative-control” plates were determined using the agar dilution method."}, "S. aureus ATCC 29213 [4]": {"test_system": "S. aureus ATCC 29213", "test": "Co-culture on fosfomycin-containing blood agar: growth of fosfomycin-resistant mutant colonies", "assay_type": "cell-based, Staphylococcus aureus", "details": "≈10^7 CFU S. aureus on 0.2 μm filter, blood agar with 50 μg/mL fosfomycin, no non-pathogenic microorganism", "procedure": "(§1) A 5 McFarland suspension of Corynebacterium aurimucosum CIP 102616 was prepared from a 48 h-culture on Columbia 5% sheep blood agar at 35+/−2° C., and 300 μl of this suspension (≈10^7 CFU) were inoculated by swabbing on a 90 mm diameter blood agar plate containing 50 μg/mL of fosfomycin; 300 μl of saline was inoculated as “negative control” (fosfomycin-containing agar plate not inoculated with C. aurimucosum). A 10 McFarland suspension of S. aureus (ATCC 29213 or NCTC 12493) was prepared as described in Example 1, and 20 μl drops of this suspension (≈10^7 CFU) were spread out on a 47-mm diameter, 0.2 μm filter placed on top of the agar plate. Plates were incubated at 35+/−2° C., and the growth of fosfomycin-resistant mutants was determined as described in Example 1. Fosfomycin MIC values of bacteria forming fosfomycin-resistant colonies on “negative-control” plates were determined using the agar dilution method.\n(§2) Serial 1/5 dilutions were prepared from a 100 McFarland suspension of C. aurimucosum and 250 μl of each bacterial suspension was inoculated by swabbing on a 90 mm diameter blood agar plate containing 50 μg/mL of fosfomycin, in order to obtain ≈10^9, ≈2×10^8, ≈4×10^7, ≈8×10^6, ≈1.6×10^6, ≈3.2×10^5, ≈6.4×10^4, ≈1.3×10^4, ≈2.5×10^3, ≈5×10^2, ≈10^2, and ≈20 CFU per plate. Materials and methods were otherwise as described in Example 2. […]"}, "S. aureus NCTC 12493 [5]": {"test_system": "S. aureus NCTC 12493", "test": "Co-culture on fosfomycin-containing blood agar: growth of fosfomycin-resistant mutant colonies", "assay_type": "cell-based, Staphylococcus aureus", "details": "≈10^7 CFU S. aureus on 0.2 μm filter, blood agar with 50 μg/mL fosfomycin, no non-pathogenic microorganism", "procedure": "as §1, §2"}, "[6]": {"test_system": "S. aureus fosfomycin-resistant mutants", "test": "Fosfomycin MIC of bacteria forming colonies on negative-control plates, agar dilution method", "assay_type": "cell-based, Staphylococcus aureus", "procedure": "as §1"}, "Corynebacterium species [7]": {"test_system": "Corynebacterium species", "details": "natural resistance; fosfomycin resistance breakpoint >32 μg/mL; cited from earlier work"}, "S. aureus ATCC 29213 [8]": {"test_system": "S. aureus ATCC 29213", "test": "Co-culture on mupirocin-containing blood agar: growth of mupirocin-resistant mutant colonies", "assay_type": "cell-based, Staphylococcus aureus", "details": "≈10^9 CFU S. aureus on 0.2 μm filter, blood agar with 8 μg/mL mupirocin, no non-pathogenic microorganism", "procedure": "(§3) A 5 McFarland suspension of Corynebacterium aurimucosum CIP 102616 was prepared as described in Example 2, and 300 μl of this suspension (≈10^7 CFU) were inoculated by swabbing on a 90 mm diameter blood agar plate containing 8 μg/mL of mupirocin; 300 μl of saline was inoculated as “negative control” (mupirocin-containing agar plate not inoculated with C. aurimucosum). Materials and methods were otherwise as described in Example 2, except that ≈10^9 CFU of S. aureus (ATCC 29213 or NCTC 12493) were spread out on the 0.2 μm filter placed on top of the agar plate."}, "S. aureus NCTC 12493 [9]": {"test_system": "S. aureus NCTC 12493", "test": "Co-culture on mupirocin-containing blood agar: growth of mupirocin-resistant mutant colonies", "assay_type": "cell-based, Staphylococcus aureus", "details": "≈10^9 CFU S. aureus on 0.2 μm filter, blood agar with 8 μg/mL mupirocin, no non-pathogenic microorganism", "procedure": "as §3"}, "Corynebacterium species [10]": {"test_system": "Corynebacterium species", "details": "natural resistance; mupirocin resistance breakpoint >2 μg/mL; cited from earlier work"}}, "note": "“Also recorded” adds a separate entry of the source."}
{"smiles": "CO[C@H]1/C=C/O[C@@]2(C)Oc3c(C)c(O)c4c(O)c(c(/C=N/N5CCN(C)CC5)c(O)c4c3C2=O)NC(=O)/C(C)=C\\C=C\\[C@H](C)[C@H](O)[C@@H](C)[C@@H](O)[C@@H](C)[C@H](OC(C)=O)[C@@H]1C", "note": "[rifampicin]", "values": [{"measurement": "MIC", "setting": "[1]", "result": "> 256", "unit": "µg/mL"}, {"measurement": "MIC", "setting": "[2]", "result": "> 256", "unit": "µg/mL"}, {"measurement": "MIC", "setting": "[3]; Staphylococcus aureus, read-out: rifampicin MIC values of colonies on negative-control plates", "result": "≥ 16", "unit": "µg/mL"}, {"measurement": "share of rifampicin-resistant mutants with MIC of 64 μg/mL or higher", "setting": "[3]; agar dilution method", "result": 100, "unit": "%"}, {"measurement": "share of rifampicin-resistant mutants with MIC of 128 μg/mL or higher", "setting": "[3]; agar dilution method", "result": "≈ 75%"}, {"measurement": "share of rifampicin-resistant mutants with MIC of 256 μg/mL or higher", "setting": "[3]; agar dilution method", "result": "≈ 25%"}]}
{"smiles": "C[C@@H]1O[C@@H]1P(=O)(O)O", "note": "[fosfomycin]", "values": [{"measurement": "fosfomycin-resistant mutant colonies, fosfomycin alone", "setting": "S. aureus ATCC 29213 [4]", "result": "colonies of fosfomycin-resistant mutants were detected; also recorded: Fosfomycin-resistant colonies developed"}, {"measurement": "fosfomycin-resistant mutant colonies, fosfomycin alone", "setting": "S. aureus NCTC 12493 [5]", "result": "colonies of fosfomycin-resistant mutants were detected; also recorded: Fosfomycin-resistant colonies developed"}, {"measurement": "MIC", "setting": "[6]; Staphylococcus aureus, read-out: fosfomycin MIC values of colonies on negative-control plates", "result": "≥ 32", "unit": "µg/mL"}, {"measurement": "share of fosfomycin-resistant mutant colonies with MIC of 64 μg/mL or higher", "setting": "[6]; agar dilution method", "result": "≈ 50%"}, {"measurement": "share of fosfomycin-resistant mutant colonies with MIC of 256 μg/mL or higher", "setting": "[6]; agar dilution method", "result": "≈ 30%"}, {"measurement": "fosfomycin MIC values", "setting": "Corynebacterium species [7]", "result": "> 256", "unit": "µg/mL"}]}
{"smiles": "C/C(=C\\C(=O)OCCCCCCCCC(=O)O)C[C@@H]1OC[C@H](C[C@@H]2O[C@H]2[C@@H](C)[C@H](C)O)[C@@H](O)[C@H]1O", "note": "[mupirocin]", "values": [{"measurement": "mupirocin-resistant mutant colonies, mupirocin alone", "setting": "S. aureus ATCC 29213 [8]", "result": "Colonies of mupirocin-resistant mutants were detected"}, {"measurement": "mupirocin-resistant mutant colonies, mupirocin alone", "setting": "S. aureus NCTC 12493 [9]", "result": "Colonies of mupirocin-resistant mutants were detected"}, {"measurement": "mupirocin MIC values", "setting": "Corynebacterium species [10]", "result": "> 16", "unit": "µg/mL"}]}
